According to US20250099596A1, “TETRAHYDRONAPHTHALENE COMPOUND, AND PREPARATION METHOD THEREFOR AND USE THEREOF IN MEDICINE” (Jiangsu Hengrui Pharmaceuticals Co., Ltd., priority 2021, published 2025):
Read-outs that look alike come from different tables or passages of the source.

Key:
MCF7 cells = assay: Inhibitory effects on MCF7 cell proliferation (CellTiter-Glo); format: cell-based; details: Homo sapiens, 144 h, 6 days incubation, read-out: IC50 (nM), inhibition of MCF7 cell proliferation
Method in brief: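 MCF7 cells seeded at 3,000 cells/well in MEM with 2% FBS, then treated next day with 9 final concentrations (4-fold dilutions from 1000 nM) for 6 days at 37° C; blank control 0.5% DMSO. Viability read by CellTiter-Glo luminescence; IC50 fitted from concentration–signal data.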

[1] = Pharmacokinetic evaluation, C57 mouse test; format: in vivo; details: C57 mice; for AUC(0-t): read-out: Area under curve AUC0-t; for half-life: read-out: Half-life T1/2 (converted); for Cmax: read-out: Plasma concentration Cmax
Method: With C57 mice as test animals, the plasma concentration of the compound of Example 26-1 was determined by LC/MS/MS at different time points after intragastric (i.g.)/intravenous (i.v.) administration to C57 mice. The pharmacokinetic behavior of the compound of the present disclosure in C57 mice was studied and its pharmacokinetic profile was evaluated.
Eighteen female C57 mice were evenly divided into 2 groups and fasted overnight, and the 2 groups were dosed intragastrically and intravenously, respectively. The mice were provided by Zhejiang Vital River Laboratory Animal Technology Co., Ltd.
An appropriate amount of the compound of Example 26-1 was weighed out and mixed with 5% DMSO+5% Tween 80+90% normal saline to make a 0.1 mg/mL colorless clear solution (for the intragastric administration group) and a 0.1 mg/mL colorless clear solution (for the intravenous administration group).
The intragastric administration group: the dose was 2.0 mg/kg, and the volume was 0.2 mL/10 g.
The intravenous administration group: the dose was 1.0 mg/kg, and the volume was 0.1 mL/10 g.
The intragastric administration group: Blood (0.1 mL) was collected into EDTA-K2 anticoagulation tubes before administration and 0.25 h, 0.5 h, 1.0 h, 2.0 h, 4.0 h, 6.0 h, 8.0 h, 11.0 h and 24.0 h after administration and centrifuged at 10,000 rpm for 1 min (4° C.). The plasma was separated within 1 h and stored at −20° C. before analysis. The process from blood collection to centrifugation was performed in an ice bath. Two hours after administration, feeding was resumed.
The intravenous administration group: Blood was collected before administration and 5 min, 15 min, 0.5 h, 1.0 h, 2.0 h, 4.0 h, 8.0 h, 11.0 h and 24 h after administration and processed as in the intragastric administration group.
The plasma concentration of the test compound was determined after administration of different concentrations of the test compound to C57 mice: plasma samples (25 μL) were collected from C57 mice at various time points after administration, proteins were precipitated with 200 μL of acetonitrile, and 50 μL of camptothecin (100 ng/mL) was added. The mixtures were vortexed for 5 min and centrifuged at 4000 rpm for 10 min. […] of supernatant was collected for LC-MS/MS analysis.

[2] = tested on: human breast cancer cell MCF-7 (Y537S) xenograft tumors; assay: Pharmacodynamic test: MCF-7 (Y537S) xenograft tumors in BEIGE SCID mice; format: in vivo; details: for Number of remaining animals/group / Mean tumor volume (mm^3) D 0 / Mean tumor volume (mm^3) D 28 / TGI (%) D 28: i.g., qd/28 d; for Mean tumor volume (mm^3) D 0: D 0 (day of grouping)
Text: To evaluate the inhibitory effect of the compound of the present disclosure on the growth of human breast cancer cell MCF-7 (Y537S) xenograft tumors in BEIGE SCID mice.
A 2% Tween 80+98% PEG-400 solution was used.
Animals: BEIGE SCID female mice, purchased from Beijing Vital River Laboratory Animal Technology Co., Ltd. (certificate No. SCXK (Beijing) 2016-0006), weighing about 19 g on purchase.
BEIGE SCID mice were acclimatized and then grouped as follows:
MCF-7 (Y537S) cells in the logarithmic growth phase were subcutaneously inoculated at 1.0×10^7/mouse/200 μL (containing 100 μL of matrigel) into the right flank of female BEIGE SCID mice. After 18 days, when the tumor volume of tumor-bearing mice reached about 170 mm^3, the mice were randomly divided into 4 groups of 8 by tumor volume and body weight: a vehicle control group, an Example 26-1 5 mpk group, an Example 26-1 15 mpk group, and an Example 26-1 45 mpk group. The day of grouping was set as DO, and intragastric administration was started and performed once a day for 28 days. The 28th day after administration was set as D28 (Table 7). For the tumor-bearing mice, the tumor volume was measured with a vernier caliper and the body weight was measured with a balance twice a week, and data were recorded.
All data were plotted and statistically analyzed using Excel and GraphPad Prism 8 software.
The tumor volume (V) was calculated as follows: V=1/2×a×b^2, where a and b represent length and width, respectively.
The relative tumor proliferation rate T/C (%)=(T−T0)/(C−C0)×100(%), where T and C are tumor volumes of a treatment group and the control group respectively at the end of the experiment; T0 and C0 are tumor volumes of a treatment group and the control group respectively at the beginning of the experiment.
Tumor growth inhibition ? TGI (%)=1−T/C (%), and if TGI (%) exceeds 100%, it will not be shown as a specific value but >100%.

[3] = female, mouse, plasma, iv, i.v., 1.0 mg/kg
[4] = female, mouse, plasma, po, i.g., 2.0 mg/kg

CC(C)C[C@H]1CCc2cc(O)ccc2[C@H]1c1ccc(N2CCC(CN3CCN(c4ccc5c(c4)CN([C@H]4CCC(=O)NC4=O)C5=O)CC3)CC2)cc1 [Example 26-1, (S)-3-(5-(4-((1-(4-((1R,2R)-6-Hydroxy-2-isobutyl-1,2,3,4-tetrahydronaphthalen-1-yl)phenyl)piperidin-4-yl)methyl)piperazin-1-yl)-1-oxoisoindolin-2-yl)piperidine-2,6-dione]
IC50 (MCF7 cells): 0.59 nM
Clearance CL/F ([1]; i.v., 1.0 mg/kg): 15.4 mL/min/kg
AUC(0-t) [1, 3]: 1070 ng·h/mL
half-life [1, 3]: 4 h
Cmax [1, 3]: 1220 ng/mL
Vd/F ([1]; female, mouse, plasma, po, i.g., 2.0 mg/kg, read-out: Apparent distribution volume Vz/F): 28.3 L/kg
AUC(0-t) [1, 4]: 517 ng·h/mL
CL/F ([1]; female, mouse, plasma, po, i.g., 2.0 mg/kg, read-out: Clearance CL/F): 62.1 mL/min/kg
half-life [1, 4]: 5.3 h
Cmax [1, 4]: 59 ng/mL
Effect on the body weight of BEIGE SCID mice ([2]; i.g., 5, 15, 45 mpk, qd for 28 days): did not affect mouse body weight
Number of remaining animals/group ([2]; 5 mpk): 8/8
Mean tumor volume (mm^3) D 0 ([2]; 5 mpk): 170.2 mm^3
Mean tumor volume (mm^3) D 28 ([2]; 5 mpk): 305.0 mm^3
TGI (%) D 28 ([2]; 5 mpk): 72%
Number of remaining animals/group ([2]; 15 mpk): 8/8
Mean tumor volume (mm^3) D 0 ([2]; 15 mpk): 168.2 mm^3
Mean tumor volume (mm^3) D 28 ([2]; 15 mpk): 219.7 mm^3
TGI (%) D 28 ([2]; 15 mpk): 89%
Number of remaining animals/group ([2]; 45 mpk): 8/8
Mean tumor volume (mm^3) D 0 ([2]; 45 mpk): 168.6 mm^3
Mean tumor volume (mm^3) D 28 ([2]; 45 mpk): 192.0 mm^3
TGI (%) D 28 ([2]; 45 mpk): 95%
